Test results taken from the supplement of paper PMC10307832.

Tests used:
Test in all cases: relative viability (nuclei count vs DMSO), 5 days (fraction); higher = more cells survive
Dactolisib + Crizotinib = compound: Cn1c(=O)n(-c2ccc(C(C)(C)C#N)cc2)c2c3cc(-c4cnc5ccccc5c4)ccc3ncc21 [Dactolisib] + C[C@@H](Oc1cc(-c2cnn(C3CCNCC3)c2)cnc1N)c1c(Cl)ccc(F)c1Cl [Crizotinib] (partner 1 µM)
Summary of the method: (§1)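 Dosing by pin tool came one day after lung cancer cell lines were seeded in 1536-well plates, using either one drug or a fixed anchor-drug dose plus five library-drug doses (not always all listed) in √10 steps. After 5 days, nuclei were counted on 4× images. Relative viability is treated-well nuclei count divided by vehicle-well nuclei count, and values are medians of duplicate plates.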

AZ505 + Palbociclib = compound: C1CCC(CC1)N(CCNCCC2=C3C(=C(C=C2)O)NC(=O)CO3)C(=O)CCNCCC4=CC(=C(C=C4)Cl)Cl [AZ505] + CC(=O)c1c(C)c2cnc(Nc3ccc(N4CCNCC4)cn3)nc2n(C2CCCC2)c1=O [Palbociclib] (partner 0.5 µM)
Summary of the method: as §1

AZ505 + Navitoclax = compound: C1CCC(CC1)N(CCNCCC2=C3C(=C(C=C2)O)NC(=O)CO3)C(=O)CCNCCC4=CC(=C(C=C4)Cl)Cl [AZ505] + CC1(C)CCC(c2ccc(Cl)cc2)=C(CN2CCN(c3ccc(C(=O)NS(=O)(=O)c4ccc(N[C@H](CCN5CCOCC5)CSc5ccccc5)c(S(=O)(=O)C(F)(F)F)c4)cc3)CC2)C1 [Navitoclax] (partner 0.5 µM)
Summary of the method: as §1

Dactolisib + Linsitinib = compound: Cn1c(=O)n(-c2ccc(C(C)(C)C#N)cc2)c2c3cc(-c4cnc5ccccc5c4)ccc3ncc21 [Dactolisib] + C[C@]1(O)C[C@@H](c2nc(-c3ccc4ccc(-c5ccccc5)nc4c3)c3c(N)nccn32)C1 [Linsitinib] (partner 1 µM)
Summary of the method: as §1

| Cell Line | relative viability (Dactolisib + Crizotinib; first compound 0.002 µM) | relative viability (Dactolisib + Crizotinib; first compound 0.006325 µM) | relative viability (Dactolisib + Crizotinib; first compound 0.02 µM) | relative viability (Dactolisib + Crizotinib; first compound 0.06325 µM) | relative viability (Dactolisib + Crizotinib; first compound 0.2 µM) | relative viability (AZ505 + Palbociclib; first compound 0.08 µM) | relative viability (AZ505 + Palbociclib; first compound 0.253 µM) | relative viability (AZ505 + Palbociclib; first compound 0.8 µM) | relative viability (AZ505 + Palbociclib; first compound 2.53 µM) | relative viability (AZ505 + Palbociclib; first compound 8 µM) | relative viability (AZ505 + Navitoclax; first compound 0.08 µM) | relative viability (AZ505 + Navitoclax; first compound 0.253 µM) | relative viability (AZ505 + Navitoclax; first compound 0.8 µM) | relative viability (AZ505 + Navitoclax; first compound 2.53 µM) | relative viability (AZ505 + Navitoclax; first compound 8 µM) | relative viability (Dactolisib + Linsitinib; first compound 0.002 µM) | relative viability (Dactolisib + Linsitinib; first compound 0.006325 µM) | relative viability (Dactolisib + Linsitinib; first compound 0.02 µM) | relative viability (Dactolisib + Linsitinib; first compound 0.06325 µM) | relative viability (Dactolisib + Linsitinib; first compound 0.2 µM) |
| --- | --- | --- | --- | --- | --- | --- | --- | --- | --- | --- | --- | --- | --- | --- | --- | --- | --- | --- | --- | --- |
| NCI-H2347 | 0.836 | 0.619 | 0.613 | 0.46 | 0.464 | 0.37 | 0.451 | 0.38 | 0.448 | 0.485 | 0.434 | 0.549 | 0.564 | 0.482 | 0.631 | 1.29 | 0.47 | 0.893 | 0.68 | 0.385 |
| NCI-H2405 | 0.758 | 0.867 | 0.849 | 0.541 | 0.38 | 0.427 | – | 0.441 | 0.463 | 0.426 | 0.449 | 0.483 | 0.621 | 0.524 | 0.696 | 0.936 | 0.76 | 0.755 | 0.323 | 0.275 |
| NCI-H3122 | 0.284 | 0.297 | 0.228 | 0.213 | 0.217 | 0.212 | 0.228 | 0.18 | 0.19 | 0.197 | 1 | 1.02 | 1.03 | 1.02 | 1 | 0.982 | 0.993 | 0.989 | 0.671 | 0.53 |
| PC-3 [JPC-3] | 1.08 | 0.979 | 0.916 | 0.874 | 0.768 | 0.527 | – | 0.521 | 0.566 | 0.568 | 0.76 | 0.817 | 0.768 | 0.84 | 0.802 | 0.996 | 0.984 | 1.03 | 0.816 | 0.639 |
| PC-14 | 0.918 | 0.932 | 0.953 | 0.603 | 0.391 | 0.402 | 0.439 | 0.456 | 0.471 | 0.595 | 0.999 | 1.07 | 0.974 | 0.95 | 0.997 | 1.04 | 1.02 | 0.945 | 0.644 | 0.407 |
| RERF-LC-KJ | 1.01 | 0.86 | 0.84 | 0.668 | 0.582 | 0.982 | 1.15 | 1.05 | 1 | 0.984 | 1.3 | 0.901 | 0.916 | 0.869 | 0.753 | 0.86 | 0.908 | 0.849 | 0.646 | 0.495 |
| SK-LU-1 | 0.912 | 0.936 | 0.681 | 0.455 | 0.352 | 0.319 | 0.343 | 0.292 | 0.322 | 0.336 | 0.716 | 0.406 | 0.451 | 0.482 | 0.351 | 1.26 | 0.988 | 0.728 | 0.494 | 0.397 |
| SK-MES-1 | 1.14 | 0.989 | 0.986 | 0.632 | 0.567 | 0.31 | 0.316 | 0.26 | 0.294 | 0.32 | 1.13 | 1.19 | 1.29 | 1.14 | 1.31 | 1.1 | 1.12 | 0.999 | 0.953 | 0.467 |
| SW 1573 | 0.989 | 0.712 | 0.66 | 0.572 | 0.317 | 0.342 | 0.393 | 0.389 | 0.441 | 0.4 | 0.893 | 1.03 | 1.05 | 1.09 | 0.91 | 0.824 | 0.606 | 0.525 | 0.297 | 0.242 |
